# Data: patent US10336732B2, “1-heterocyclyl isochromanyl compounds and analogs for treating CNS disorders” (Sunovion Pharmaceuticals Inc., priority 2015, dated 2019)
# Test system: mice
# Experiment: Neuropharmacological assay (SmartCube), behavioral signature of compound-treated mice
# Type: in vivo
# Conditions: i.p. 15 min before behavioral test, most efficacious dose(s) of 3 doses
# Summary of the method: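 Mice received compound i.p. in NMP/PEG/propylene glycol vehicle at 3 doses, 15 min before testing. Video-captured behavior was algorithmically compared with a reference-drug signature database.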
SMILES,AD: ADHD (probability that behavioral signature matches class),AG: analgesic (probability that behavioral signature matches class),AX: anxiolytic (probability that behavioral signature matches class),CE: cognitive enhancer (probability that behavioral signature matches class),DP: anti-depressant (probability that behavioral signature matches class),HA: hallucinogen (probability that behavioral signature matches class),MS: mood stabilizer (probability that behavioral signature matches class),PS: anti-psychotic (probability that behavioral signature matches class),SD: sedative hypnotic (probability that behavioral signature matches class),UN: uncharacterized CNS activity (probability that behavioral signature matches class)
"FC1(F)CO[C@H]([C@@H]2CCCN2)c2ccccc21 [Compound I-139, (S)-2-((S)-4,4-difluoroisochroman-1-yl)pyrrolidine]",+ (LOQ ≤ + <5%),+ (LOQ ≤ + <5%),++ (5% ≤ ++ <25%),++ (5% ≤ ++ <25%),++ (5% ≤ ++ <25%),+ (LOQ ≤ + <5%),+ (LOQ ≤ + <5%),+++ (25% ≤ +++ <50%),+ (LOQ ≤ + <5%),+ (LOQ ≤ + <5%)
"FC1(F)CO[C@@H]([C@@H]2CCCN2)c2ccccc21 [Compound I-140, (S)-2-((R)-4,4-difluoroisochroman-1-yl)pyrrolidine]",+ (LOQ ≤ + <5%),++ (5% ≤ ++ <25%),++ (5% ≤ ++ <25%),+++ (25% ≤ +++ <50%),++ (5% ≤ ++ <25%),+ (LOQ ≤ + <5%),++ (5% ≤ ++ <25%),++ (5% ≤ ++ <25%),+++ (25% ≤ +++ <50%),++ (5% ≤ ++ <25%)
"c1cc2c(c3c1CO[C@H]3[C@@H]1CCCN1)OCO2 [Compound I-141, (S)-2-((R)-6,8-dihydro-[1,3]dioxolo[4,5-e]isobenzofuran-8-yl)-pyrrolidine]",++ (5% ≤ ++ <25%),++ (5% ≤ ++ <25%),++ (5% ≤ ++ <25%),+++ (25% ≤ +++ <50%),++ (5% ≤ ++ <25%),++ (5% ≤ ++ <25%),+ (LOQ ≤ + <5%),++ (5% ≤ ++ <25%),+ (LOQ ≤ + <5%),++++ (50% ≤ ++++)
"c1cc2c(c3c1CO[C@@H]3[C@@H]1CCCN1)OCO2 [Compound I-142, (S)-2-((S)-6,8-dihydro-[1,3]dioxolo[4,5-e]isobenzofuran-8-yl)-pyrrolidine]",+ (LOQ ≤ + <5%),++ (5% ≤ ++ <25%),+++ (25% ≤ +++ <50%),++ (5% ≤ ++ <25%),++ (5% ≤ ++ <25%),+ (LOQ ≤ + <5%),+ (LOQ ≤ + <5%),++ (5% ≤ ++ <25%),+ (LOQ ≤ + <5%),++ (5% ≤ ++ <25%)
"c1cc2c(c3c1CCO[C@@H]3[C@@H]1CCN1)OCO2 [Compound I-143, (S)-2-((S)-7,9-dihydro-6H-[1,3]dioxolo[4,5-h]isochromen-9-yl)azetidine]",+ (LOQ ≤ + <5%),++ (5% ≤ ++ <25%),++ (5% ≤ ++ <25%),+ (LOQ ≤ + <5%),++ (5% ≤ ++ <25%),+ (LOQ ≤ + <5%),+ (LOQ ≤ + <5%),++ (5% ≤ ++ <25%),+ (LOQ ≤ + <5%),+++ (25% ≤ +++ <50%)
"c1cc2c(c3c1CCO[C@H]3[C@@H]1CCN1)OCO2 [Compound I-144, (S)-2-((R)-7,9-dihydro-6H-[1,3]dioxolo[4,5-h]isochromen-9-yl)azetidine]",++ (5% ≤ ++ <25%),++ (5% ≤ ++ <25%),++ (5% ≤ ++ <25%),++ (5% ≤ ++ <25%),+++ (25% ≤ +++ <50%),+ (LOQ ≤ + <5%),++ (5% ≤ ++ <25%),+++ (25% ≤ +++ <50%),+ (LOQ ≤ + <5%),+++ (25% ≤ +++ <50%)

# Same assay, conditions: i.p. 15 min before behavioral test, most efficacious dose(s) of 3 doses
row,SMILES,XG: anxiogenic (probability that behavioral signature matches class)
1,"FC1(F)CO[C@H]([C@@H]2CCCN2)c2ccccc21 [Compound I-139, (S)-2-((S)-4,4-difluoroisochroman-1-yl)pyrrolidine]",+ (LOQ ≤ + <5%)
2,"FC1(F)CO[C@@H]([C@@H]2CCCN2)c2ccccc21 [Compound I-140, (S)-2-((R)-4,4-difluoroisochroman-1-yl)pyrrolidine]",+ (LOQ ≤ + <5%)
3,"c1cc2c(c3c1CO[C@H]3[C@@H]1CCCN1)OCO2 [Compound I-141, (S)-2-((R)-6,8-dihydro-[1,3]dioxolo[4,5-e]isobenzofuran-8-yl)-pyrrolidine]",+ (LOQ ≤ + <5%)
4,"c1cc2c(c3c1CO[C@@H]3[C@@H]1CCCN1)OCO2 [Compound I-142, (S)-2-((S)-6,8-dihydro-[1,3]dioxolo[4,5-e]isobenzofuran-8-yl)-pyrrolidine]",+ (LOQ ≤ + <5%)
5,"c1cc2c(c3c1CCO[C@@H]3[C@@H]1CCN1)OCO2 [Compound I-143, (S)-2-((S)-7,9-dihydro-6H-[1,3]dioxolo[4,5-h]isochromen-9-yl)azetidine]",+ (LOQ ≤ + <5%)
6,"c1cc2c(c3c1CCO[C@H]3[C@@H]1CCN1)OCO2 [Compound I-144, (S)-2-((R)-7,9-dihydro-6H-[1,3]dioxolo[4,5-h]isochromen-9-yl)azetidine]",+ (LOQ ≤ + <5%)
